Reference: PMC11477167, “Structure–Function Relationship of a Novel MTX-like Peptide (MTX1) Isolated and Characterized from the Venom of the Scorpion Maurus palmatus” (International Journal of Molecular Sciences, 2024)
pIC50: −log10 of the molar value. “Also recorded” adds a separate entry of the source. Bridge positions count the residues as written; N and C are the ends. Peptide text beside a SMILES is read from it.

Test system: 125I-apamin binding site of rat brain synaptosomes (SKCa channels)
Experiment: Competition binding with 125I-apamin on rat brain synaptosomes (SKCa channels)
Method: The rats were euthanized by dislocation and their brains were rapidly removed and placed on a cold plate. The brain tissue was suspended in a 10% (w/v) sucrose-HEPES buffer in a polytron homogenizer with a protease inhibitor. Synaptosomal membranes were prepared as previously described. The protein content of the membranes, determined by the […], was 0.92 µg/µL. The protein content was determined using a modified Lowry method, with assays conducted on the synaptosomal fraction P2 isolated from rat brain. MTX1 was reacted with Na [^125I] (Amersham Biosciences, Buckinghamshire, United Kingdom) in the presence of lactoperoxidase and H2O2 in 50 mM phosphate buffer at pH 7.2. The separation of free iodine was achieved by anion exchange chromatography using Dowex 1X-8 (Merck, Darmstadt, Germany). The mixture was then injected into a reverse-phase HPLC column (analytical RP-C18 Beckman, Ultrasphere, 5 μm, 4.6 × 250 mm). Solvent A consisted of 0.1% trifluoroacetic acid (v/v) in water, and solvent B consisted of 0.1% trifluoroacetic acid (v/v) in acetonitrile. The HPLC experiments were performed as previously described. Radioactivity was quantified using a Packard spectrometer (Crystal I1 multidetector system, San Francisco, CA, USA) with the native toxin eluted at 18 min. The iodination mixture yielded only two peaks (RT = 2 min and RdT = 25 min); approximately 70–85% of the radioactivity was linked to the peak (RT = 25 min), which was postulated to correspond to the mono-iod derivative.
4.10. Binding Assay for SKCa Channels
The process of iodination of apamin was executed utilizing IODO-GEN. In displacement assays, 50 μL of 0.1 nM ^125I-apamine (2000 Ci/mmol) was combined with 400 µL of synaptosome suspension (0.4 mg protein/mL). The samples were incubated with 50 µL of one of the competitor concentration series (MTX1, MTX or CHTX) in a final volume of 500 µL for 1 h at 0 °C. The incubation buffer consisted of 25 mM hydroxymethyl amino methane (Tris-HCl) (pH 7.2), 10 mM potassium chloride (KCl) and 0.1% BS. Following centrifugation for 10 min, the samples were centrifuged again and the resulting pellets were washed three times with 2 mL of the same buffer. The quantification of bound radioactivity was conducted utilizing (Packard Crystal II). The mean values of triplicate experiments are reported. Non-specific binding, characterized as less than 10% of total binding, was determined in the presence of an excess (10 nM) of unlabeled apamin.

Structure (SMILES): CSCC[C@@H]1NC(=O)[C@@H]2CSSC[C@H](NC(=O)[C@H](CO)NC(=O)[C@@H](N)C(C)C)C(=O)N[C@@H]([C@@H](C)O)C(=O)NCC(=O)N[C@@H](CO)C(=O)N[C@@H](CCCCN)C(=O)N[C@@H](CCC(=O)O)C(=O)N[C@@H](CSSC[C@@H](C(=O)N[C@@H](CCCCN)C(=O)N[C@H]3CSSC[C@@H](C(N)=O)NC(=O)CNC(=O)[C@H](Cc4ccc(O)cc4)NC3=O)NC(=O)[C@H](CCCCN)NC(=O)[C@H](CCCNC(=N)N)NC(=O)[C@H](CC(N)=O)NC1=O)C(=O)N[C@@H](Cc1ccc(O)cc1)C(=O)N[C@@H](C)C(=O)N1CCC[C@H]1C(=O)N[C@H]1CSSC[C@H](NC(=O)CNC(=O)[C@H]([C@@H](C)O)NC(=O)[C@H](CCC(N)=O)NC(=O)[C@H](CCCCN)NC(=O)[C@H](CCCCN)NC1=O)C(=O)N1CCC[C@H]1C(=O)N[C@@H](CC(N)=O)C(=O)N[C@@H](C)C(=O)N[C@@H](CCCCN)C(=O)N2 [MTX1] (H-VSCTGSKECYAPCKKQTGCPNAKCMNRKCKCYGC-NH2; disulfide 3-24, 9-29, 13-19, 31-34; N-terminus and C-terminus assumed)
- Potency on SKCa channels relative to MTX (comparison in words (Kv1.2 and SKCa channels together)): higher binding affinity; also recorded: significantly more effective at inhibiting the Kv1.2 currents and SKCa channels
- Affinity relative to MTX, apamin-sensitive SKCa channels (comparison of IC50 of MTX1 with IC50 of MTX (5 nM)): almost three times higher than that of MTX
- pIC50 (rat brain synaptosomes (0.4 mg protein/mL), 50 μL of 0.1 nM 125I-apamin, 1 h, 0 °C, pH 7.2, mean of triplicate, read-out: IC50, inhibition of 125I-apamin binding): 8.77
- Recognition of apamin receptor sites (rat brain synaptosomes, conclusion in words): recognizes apamin receptor sites with a high affinity and binds partially with these sites
